Data: ChEMBL document CHEMBL1152948, “Antimycobacterial activity of new 3,5-disubstituted 1,3,4-oxadiazol-2(3H)-one derivatives. Molecular modeling investigations” (2009)
≈ marks a conversion by molar mass, not a printed value. Calls of active or inactive are those of the source. The calls are words filed in the database; no cut-off is given here.

Columns and labels:
[1] = test system: Mycobacterium tuberculosis; assay: Antitubercular activity against Mycobacterium tuberculosis H37Rv by microdilution resazurin assay; format: functional
[2] = test system: Mycobacterium tuberculosis; assay: Antitubercular activity against Mycobacterium tuberculosis H37Rv at 30 ug/disk by microdilution resazurin assay; format: functional, organism-based
[3] = test system: Mycobacterium tuberculosis; assay: Antitubercular activity against Mycobacterium tuberculosis H37Rv at 5 ug/disk by microdilution resazurin assay; format: functional, organism-based

| Structure (SMILES) | MIC [1] [µg/mL] | Activity [2] | Activity [3] |
| --- | --- | --- | --- |
| O=c1[nH]nc(-c2ccccn2)o1 | 4 (≈ 24.5 µM) |  |  |
| O=c1[nH]nc(-c2cnccn2)o1 | > 64 |  |  |
| CC1CCCN(Cn2nc(-c3cnccn3)oc2=O)C1 (configuration not stated) | > 64 |  |  |
| CC1CCCN(Cn2nc(-c3ccccn3)oc2=O)C1 (configuration not stated) | 4 (≈ 14.6 µM) |  |  |
| CN(Cc1cccc(Br)c1)Cn1nc(-c2ccncc2)oc1=O | 4 (≈ 10.7 µM) |  |  |
| CN(Cc1cccc(F)c1)Cn1nc(-c2ccncc2)oc1=O | 8 (≈ 25.5 µM) |  |  |
| CN(Cc1ccc(Cl)cc1)Cn1nc(-c2ccncc2)oc1=O | 8 (≈ 24.2 µM) |  |  |
| O=c1[nH]nc(-c2cccnc2)o1 | 32 (≈ 196 µM) |  |  |
| CN(Cc1ccccc1)Cn1nc(-c2ccncc2)oc1=O | 8 (≈ 27 µM) |  |  |
| CN(Cc1ccccc1F)Cn1nc(-c2ccncc2)oc1=O | 4 (≈ 12.7 µM) |  |  |
| CC1CCCCN1Cn1nc(-c2ccccc2)oc1=O (configuration not stated) | 32 (≈ 117 µM) |  |  |
| CC1CCCN(Cn2nc(-c3ccccc3)oc2=O)C1 (configuration not stated) | 32 (≈ 117 µM) |  |  |
| O=c1oc(-c2cnccn2)nn1CN1CCCCC1 | > 64 |  |  |
| O=c1oc(-c2cccnc2)nn1CN1CCCCC1 | 32 (≈ 123 µM) |  |  |
| CC1CCN(Cn2nc(-c3cnccn3)oc2=O)CC1 | > 64 |  |  |
| CC1CCCN(Cn2nc(-c3cccnc3)oc2=O)C1 (configuration not stated) | 32 (≈ 117 µM) |  |  |
| Cc1ccc(CN(C)Cn2nc(-c3ccncc3)oc2=O)cc1 | 4 (≈ 12.9 µM) |  |  |
| CC1CCN(Cn2nc(-c3ccccc3)oc2=O)CC1 | 32 (≈ 117 µM) |  |  |

| Structure (SMILES) | MIC [1] [µg/mL] | Activity [2] | Activity [3] |
| --- | --- | --- | --- |
| CN(Cc1ccc(F)cc1)Cn1nc(-c2ccncc2)oc1=O | 4 (≈ 12.7 µM) |  |  |
| CC1CCCCN1Cn1nc(-c2ccccn2)oc1=O (configuration not stated) | 4 (≈ 14.6 µM) |  |  |
| CN(Cc1cccc(Cl)c1)Cn1nc(-c2ccncc2)oc1=O | 8 (≈ 24.2 µM) |  |  |
| CN(Cc1ccccc1Br)Cn1nc(-c2ccncc2)oc1=O | 8 (≈ 21.3 µM) |  |  |
| CO[C@H]1/C=C/O[C@@]2(C)Oc3c(C)c(O)c4c(O)c(c(/C=N/N5CCN(C)CC5)c(O)c4c3C2=O)NC(=O)/C(C)=C\C=C\[C@H](C)[C@H](O)[C@@H](C)[C@@H](O)[C@@H](C)[C@H](OC(C)=O)[C@@H]1C [RIFAMPIN] | 1 (≈ 1.22 µM) | Active |  |
| CN(Cc1ccc(Br)cc1)Cn1nc(-c2ccncc2)oc1=O | 4 (≈ 10.7 µM) |  |  |
| CC1CCCCN1Cn1nc(-c2cccnc2)oc1=O (configuration not stated) | 32 (≈ 117 µM) |  |  |
| CN(Cc1ccc(Cl)cc1Cl)Cn1nc(-c2ccncc2)oc1=O | 8 (≈ 21.9 µM) |  |  |
| NNC(=O)c1ccncc1 [ISONIAZID] | 0.5 (≈ 3.65 µM) |  | Active |
| CC1CCN(Cn2nc(-c3cccnc3)oc2=O)CC1 | > 64 |  |  |
| O=c1[nH]nc(-c2ccccc2)o1 | 32 (≈ 197 µM) |  |  |
| O=c1[nH]nc(-c2ccncc2)o1 [NEOVADRINE] | 4 (≈ 24.5 µM) |  |  |
| CC1CCN(Cn2nc(-c3ccccn3)oc2=O)CC1 | 4 (≈ 14.6 µM) |  |  |
| CN(Cc1ccccc1Cl)Cn1nc(-c2ccncc2)oc1=O | 8 (≈ 24.2 µM) |  |  |
| O=c1oc(-c2ccccn2)nn1CN1CCCCC1 | 4 (≈ 15.4 µM) |  |  |
| O=c1oc(-c2ccccc2)nn1CN1CCCCC1 | 32 (≈ 123 µM) |  |  |
| CN(Cc1cccc2ccccc12)Cn1nc(-c2ccncc2)oc1=O | 8 (≈ 23.1 µM) |  |  |
